Patent US20260272936A1, “TREATMENT OF CANCER WITH A PARG INHIBITOR” (858 Therapeutics, Inc., priority 2023, published 2026)

Experiments:
[1] = test system: γH2AX in HCC1428 tumor tissue; test: γH2AX immunohistochemistry of HCC1428 xenograft tumor tissue (Study 2); assay type: in vivo, BALB/c nude mice; conditions: vehicle 2.4%
Description: (§1) The mice in the 50 mg/kg BID group were dosed every day whereas the mice in the […] were dosed for the first 5 days of each 7-day cycle, such that the total weekly dose was the same between these two groups. At the end of the study, tumor tissue was collected for the vehicle, 50 mg/kg BID, and 30, 50 and 100 mg/kg QD dose groups and formalin-fixed and paraffin embedded (FFPE) for γH2AX immunohistochemistry. γH2AX expression in FFPE tumor tissue was evaluated by staining and was performed using immunohistochemistry and validated antibody conditions at Histowiz (Long Island City, NY, USA). The γH2AX IHC images were then quantified in-house using QuPath software. The total number of nuclei objects per tumor section based on hematoxylin counter-staining (blue) were segmented using a Stardist algorithm and the number of γH2AX positive DAB (3,3′ Diaminobenzidine) stained cells (brown) quantified using object classification with a pre-trained random forest model based on DAB staining parameters including intensity and standard deviation.
% γH2AX positive=(#γH2AX positive nuclei/#total nuclei)*100
Statistical analysis of the γH2AX staining was conducted using Ordinary one-way ANOVA with Dunnett's multiple comparisons test and differences considered significant at a calculated probability p≤0.05.

[2] = test system: HCC1428 breast cancer xenograft; test: HCC1428 breast cancer CDX model, tumor volume and body weight; assay type: in vivo, BALB/c nude mice; conditions: for % TGI: 25 days
Description: Two separate studies were performed. […] Groups of 8 animals each were established by random assignment. Tumor volumes and body weights were measured twice weekly. The tumor volume (TV) in mm^3 was estimated using the formula: TV=a×b^2/2, where a and b are the long and short diameters of a tumor, respectively. For each treatment group, if the mean TV at the end of study was greater than the mean tumor volume at treatment initiation, then tumor growth inhibition (TGI) was calculated using the formula: % TGI=[1-(Mean TreatedTVFinal−Mean Treated TVInitial)/(Mean Vehicle TVFinal−Mean VehicleTVInitial)]×100. If the mean TV of the treatment group at the end of study was less than the mean tumor volume at treatment initiation, then tumor regression (REG) was calculated using the formula: % REG=[(Mean Treated TVInitial−Mean Treated TVFinal)/Mean TreatedTVInitial]×100. Statistical analysis of end-of-study tumor volumes was performed using two-way repeated measures ANOVA followed by post hoc comparisons of the mean.
The PARP inhibitor niraparib was included as a comparator and dosed orally QD at a dose of 45 mg/kg.
as §1

[3] = test system: HBCx-34 breast cancer patient-derived xenograft; test: HBCx-34 breast cancer PDX model; assay type: in vivo, Hsd: Athymic Nude-Foxn1nu mice; conditions: 75 or 100 mg/kg BID, at day 15, transient
Description: The PDX models were established by subcutaneous inoculation of HBCx-22 or HBCx-34 cells into Hsd: Athymic Nude-Foxn1nu mice. Breast tumor-bearing mice received estrogen diluted in drinking water (β-oestradiol, 8.5 mg/L) from the date of tumor inoculation until the end of the study to promote optimal growth of the ER^+ cell line. Groups of 10 animals each were established by random assignment. Tumor volumes and body weights were measured twice weekly. […] Statistical analysis of end-of-study tumor volumes was performed using the Kruskal-Wallis test with Dunn's multiple comparisons test (HBCx-34) or Brown-Forsythe test with Dunnett's T3 multiple comparisons test (HBCx-22).
Compound 1 was administered to mice orally twice daily (BID) for 42 days at a dose of 75 or 100 mg/kg based on body weight. […] Compound 1 was administered to mice orally BID for 35 days at doses of 75 or 100 mg/kg based on body weight.

Structure (SMILES): [2H]C([2H])(c1cnn(C)c1)N1C(=O)c2cc(S(=O)(=O)NC3(C)CC3)ccc2N2C1=NC[C@H]2C [Compound 1, (R)-1-methyl-4-((1-methyl-1H-pyrazol-4-yl)methyl-d2)-N-(1-methylcyclopropyl)-5-oxo-1,2,4,5-tetrahydroimidazo[1,2-a]quinazoline-7-sulfonamide]
- % γH2AX positive cells in tumor tissue ([1]; 30 mg/kg QD): 3.7% +/− 0.4
- % γH2AX positive cells in tumor tissue ([1]; 50 mg/kg BID): 6.8% +/− 0.4
- % γH2AX positive cells in tumor tissue ([1]; 50 mg/kg QD): 4.2% +/− 0.3
- % γH2AX positive cells in tumor tissue ([1]; 100 mg/kg QD): 5.9% +/− 0.5
- mean body loss over the treatment period ([2]; Study 1, 75 mg/kg BID): < 4%
- mean body weight change over the treatment period ([2]; Study 1, 100 mg/kg QD): mean body weight increase
- % TGI ([2]; Study 2, 10 mg/kg QD oral): 26% TGI
- % TGI ([2]; Study 2, 30 mg/kg QD oral): 35% TGI
- mean body weight loss during the treatment period ([2]; Study 2, all dose groups): ≤ 2%
- maximum decrease in body weight [3]: approximately 11%
